# Reference: US9169254B2, “Spiroimidazolone derivative” (Chugai Seiyaku Kabushiki Kaisha, priority 2009, dated 2015)
# Target: T1, human PTH1 receptor (Homo sapiens, UniProt Q03431)
# T1 sequence (Q03431 27-593): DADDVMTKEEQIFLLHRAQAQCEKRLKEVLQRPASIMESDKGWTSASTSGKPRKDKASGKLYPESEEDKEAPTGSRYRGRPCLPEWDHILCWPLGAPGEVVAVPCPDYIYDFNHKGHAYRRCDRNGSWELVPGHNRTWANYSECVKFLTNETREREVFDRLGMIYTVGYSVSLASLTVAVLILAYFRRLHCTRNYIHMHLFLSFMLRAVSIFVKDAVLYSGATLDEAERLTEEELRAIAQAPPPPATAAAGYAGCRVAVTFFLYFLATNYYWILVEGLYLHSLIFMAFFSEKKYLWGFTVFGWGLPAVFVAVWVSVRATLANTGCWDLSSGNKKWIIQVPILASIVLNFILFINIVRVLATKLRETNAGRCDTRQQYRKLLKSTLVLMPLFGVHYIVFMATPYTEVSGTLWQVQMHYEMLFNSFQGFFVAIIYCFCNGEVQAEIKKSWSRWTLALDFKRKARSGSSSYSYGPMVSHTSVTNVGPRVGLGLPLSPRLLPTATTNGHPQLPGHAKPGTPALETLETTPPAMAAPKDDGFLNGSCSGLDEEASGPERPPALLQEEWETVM
# Assay: In vitro cAMP signal activity in HKRK-B7 cells (LLC-PK1 cells overexpressing the human PTH1 receptor)
# Format: cell-based
# Settings: HKRK-B7 cells; compound at 1×10^−3 M; cAMP produced as percentage of that produced by hPTH(1-34) at 100 nM
row,SMILES,cAMP production activity (%)
1,"Cc1cc(N2C(=O)OCC2C)ccc1/C=C/S(=O)(=O)N1CCC2(CC1)N=C(C1CCC(C)CC1)NC2=O (stereo not drawn) [Compound 579, 2-(4-methyl-cyclohexyl)-8-{(E)-2-[2-methyl-4-(4-methyl-2-oxo-oxazolidin-3-yl)-phenyl]-ethenesulfonyl}-1,3,8-triaza-spiro[4.5]dec-1-en-4-one]",55
2,"CO[C@H]1CC[C@H](C2=NC3(CCN(S(=O)(=O)c4cccc(Cl)c4)CC3)C(=O)N2)CC1 [Compound 25, 8-(3-chloro-benzenesulfonyl)-2-(4-methoxy-cyclohexyl)-1,3,8-triaza-spiro[4.5]dec-1-en-4-one]",18
3,"Cc1cc(OCCC(O)CO)ccc1CCS(=O)(=O)N1CCC2(CC1)N=C(c1cccc(C(F)(F)F)c1)NC2=O (stereo not drawn) [Compound 284, 8-{2-[4-(3,4-dihydroxy-butoxy)-2-methyl-phenyl]-ethanesulfonyl}-2-(3-trifluoromethyl-phenyl)-1,3,8-triaza-spiro[4.5]dec-1-en-4-one]",82
4,"CC(=O)Nc1ccc(CCS(=O)(=O)N2CCC3(CC2)N=C(c2cccc(Cl)c2Cl)NC3=O)c(C)c1 [Compound 147, N-(4-{2-[2-(2,3-dichloro-phenyl)-4-oxo-1,3,8-triaza-spiro[4.5]dec-1-ene-8-sulfonyl]-ethyl}-3-methyl-phenyl)-acetamide]",105
5,"Cc1cc(NC(=O)[C@@H](N)C(C)C)cc(C)c1/C=C/S(=O)(=O)N1CCC2(CC1)N=C(C1CCCCC1)NC2=O [Compound 735, (S)-2-Amino-N-{4-[(E)-2-(2-cyclohexyl-4-oxo-1,3,8-triaza-spiro[4.5]dec-1-ene-8-sulfonyl)-vinyl]-3,5-dimethyl-phenyl}-3-methyl-butylamide]",32
6,"Cc1cc(CN2CCCC2=O)cc(C)c1CCS(=O)(=O)N1CCC2(CC1)N=C(C1CCC(C)CC1)NC2=O (stereo not drawn) [Compound 781, 8-{2-[2,6-dimethyl-4-(2-oxo-pyrrolidin-1-ylmethyl)-phenyl]-ethanesulfonyl}-2-(4-methyl-cyclohexyl)-1,3,8-triaza-spiro[4.5]dec-1-en-4-one]",30
7,"Cc1cc(C(=O)N2C[C@H](NC(C)C)[C@@H](O)C2)cc(C)c1/C=C/S(=O)(=O)N1CCC2(CC1)N=C(c1cccc(OC(F)(F)F)c1)NC2=O [Compound 406, 8-{(E)-2-[4-((3S,4S)-3-hydroxy-4-isopropylamino-pyrrolidine-1-carbonyl)-2,6-dimethyl-phenyl]-ethenesulfonyl}-2-(3-trifluoromethoxy-phenyl)-1,3,8-triaza-spiro[4.5]dec-1-en-4-one]",100
8,"Cc1cc(C(=O)N2CCN(c3ncccn3)CC2)ccc1CCS(=O)(=O)N1CCC2(CC1)N=C(c1cccc(C(F)(F)F)c1)NC2=O [Compound 359, 8-{2-[2-methyl-4-(4-pyrimidin-2-yl-piperazine-1-carbonyl)-phenyl]-ethanesulfonyl}-2-(3-trifluoromethyl-phenyl)-1,3,8-triaza-spiro[4.5]dec-1-en-4-one]",65
9,"O=C1NC(c2cccc(OC(F)(F)F)c2)=NC12CCN(S(=O)(=O)/C=C/c1ccc3c(ccn3C[C@H](O)CO)c1)CC2 [Compound 597, 8-{(E)-2-[1-((S)-2,3-dihydroxy-propyl)-1H-indol-5-yl]-ethenesulfonyl}-2-(3-trifluoromethoxy-phenyl)-1,3,8-triaza-spiro[4.5]dec-1-en-4-one]",51
10,"Cc1ccccc1/C=C/S(=O)(=O)N1CCC2(CC1)N=C(C1CCCCC1)NC2=O [Compound 186, 2-cyclohexyl-8-((E)-2-o-tolyl-ethenesulfonyl)-1,3,8-triaza-spiro[4.5]dec-1-en-4-one]",51
11,"Cc1cc(OCCC(O)CO)ccc1/C=C/S(=O)(=O)N1CCC2(CC1)N=C(c1cccc(C(F)(F)F)c1)NC2=O (stereo not drawn) [Compound 210, 8-{(E)-2-[4-(3,4-Dihydroxy-butoxy)-2-methyl-phenyl]-ethenesulfonyl}-2-(3-trifluoromethyl-phenyl)-1,3,8-triaza-spiro[4.5]dec-1-en-4-one]",79
12,"[2H]C([2H])([2H])N(C(N)=O)c1cc(C)c(CCS(=O)(=O)N2CCC3(CC2)N=C(c2ccc(F)c(C(F)(F)F)c2)NC3=O)c(C)c1 [Compound 1391, 1-(4-{2-[2-(4-fluoro-3-trifluoromethyl-phenyl)-4-oxo-1,3,8-triaza-spiro[4.5]dec-1-ene-8-sulfonyl]-ethyl}-3,5-dimethyl-phenyl)-1-[1,1,1-^2H3]methyl-urea]",116
13,"CC(=O)N(C[C@H](O)CO)c1cc(C)c(CCS(=O)(=O)N2CCC3(CC2)N=C(CCCCCCCCC(F)(F)F)NC3=O)c(C)c1 [Compound 824, N—((S)-2,3-dihydroxy-propyl)-N-(3,5-dimethyl-4-{2-[4-oxo-2-(9,9,9-trifluoro-nonyl)-1,3,8-triaza-spiro[4.5]dec-1-ene-8-sulfonyl]-ethyl}-phenyl)-acetamide]",140
14,"O=C1NC(CCCCCCCCC(F)(F)F)=NC12CCN(S(=O)(=O)CCc1cccc3c1ccn3C[C@H](O)CO)CC2 [Compound 789, 8-{2-[1-((S)-2,3-dihydroxy-propyl)-1H-indol-4-yl]-ethanesulfonyl}-2-(9,9,9-trifluoro-nonyl)-1,3,8-triaza-spiro[4.5]dec-1-en-4-one]",157
15,"Cc1cc(CN(CCO)C(=O)OC(C)(C)C)ccc1/C=C/S(=O)(=O)N1CCC2(CC1)N=C(C1CCCCC1)NC2=O [Compound 708, {4-[(E)-2-(2-Cyclohexyl-4-oxo-1,3,8-triaza-spiro[4.5]dec-1-ene-8-sulfonyl)-vinyl]-3-methyl-benzyl}-(2-hydroxy-ethyl)-carbamic acid tert-butyl ester]",38
16,Cc1cc2ccc1CCS(=O)(=O)N1CCC3(CC1)N=C(NC3=O)c1cc(cc(C(F)(F)F)c1)OCC/C=C\CN(C)C2=O [Compound 1408],5.1
17,"COc1ccc(C2=NC3(CCN(S(=O)(=O)/C=C/c4c(C)cc(C(=O)N5CCC(C)(O)CC5)cc4C)CC3)C(=O)N2)cc1C [Compound 1238, 8-{(E)-2-[4-(4-hydroxy-4-methyl-piperidine-1-carbonyl)-2,6-dimethyl-phenyl]-ethenesulfonyl}-2-(4-methoxy-3-methyl-phenyl)-1,3,8-triaza-spiro[4.5]dec-1-en-4-one]",73
18,"CC(=O)NC[C@H]1CCC(=O)N1c1cc(C)c(/C=C/S(=O)(=O)N2CCC3(CC2)N=C(c2cccc(OC(F)(F)F)c2)NC3=O)c(C)c1 [Compound 610, N—[(R)-1-(3,5-dimethyl-4-{(E)-2-[4-oxo-2-(3-trifluoromethoxy-phenyl)-1,3,8-triaza-spiro[4.5]dec-1-ene-8-sulfonyl]-vinyl}-phenyl)-5-oxo-pyrrolidin-2-ylmethyl]-acetamide]",85
19,"Cc1cc(N(C)C(N)=O)cc(C)c1CCS(=O)(=O)N1CCC2(CC1)N=C(C1CCC(C(F)(F)F)CC1)NC2=O (stereo not drawn) [Compound 472, 1-(3,5-Dimethyl-4-{2-[4-oxo-2-(4-trifluoromethyl-cyclohexyl)-1,3,8-triaza-spiro[4.5]dec-1-ene-8-sulfonyl]-ethyl}-phenyl)-1-methyl-urea]",104
20,"Cc1cc(OC2CCN(C(=O)OC(C)(C)C)CC2)ccc1CCS(=O)(=O)N1CCC2(CC1)N=C(c1cccc(OC(F)(F)F)c1)NC2=O [Compound 859, 4-(3-methyl-4-{2-[4-oxo-2-(3-trifluoromethoxy-phenyl)-1,3,8-triaza-spiro[4.5]dec-1-ene-8-sulfonyl]-ethyl}-phenoxy)-piperidine-1-carboxylic acid tert-butyl ester]",26
21,"Cc1cc(OCCC(O)CO)ccc1/C=C/S(=O)(=O)N1CCC2(CC1)N=C(c1ccc3c(c1)OC(F)(F)O3)NC2=O (stereo not drawn) [Compound 1167, 2-(2,2-difluoro-benzo[1,3]dioxol-5-yl)-8-{(E)-2-[4-(3,4-dihydroxy-butoxy)-2-methyl-phenyl]-ethenesulfonyl}-1,3,8-triaza-spiro[4.5]dec-1-en-4-one]",115
22,"O=C(CCCOCc1ccccc1)N1CCCC(C2=NC3(CCN(S(=O)(=O)CCc4cccc5ccccc45)CC3)C(=O)N2)C1 (stereo not drawn) [Compound 436, 2-[1-(4-benzyloxy-butyryl)-piperidin-3-yl]-8-(2-naphthalen-1-yl-ethanesulfonyl)-1,3,8-triaza-spiro[4.5]dec-1-en-4-one]",28
23,"Cc1cc(S(=O)(=O)NC2CCN(Cc3ccccc3)CC2)ccc1CCS(=O)(=O)N1CCC2(CC1)N=C(c1cccc(OC(F)(F)F)c1)NC2=O [Compound 848, N-(1-benzyl-piperidin-4-yl)-3-methyl-4-{2-[4-oxo-2-(3-trifluoromethoxy-phenyl)-1,3,8-triaza-spiro[4.5]dec-1-ene-8-sulfonyl]-ethyl}-benzenesulfonamide]",77
24,"CC(=O)Nc1cc(C)c(/C=C/S(=O)(=O)N2CCC3(CC2)N=C(C2CCCCC2)NC3=O)c(C)c1 [Compound 204, N-{4-[(E)-2-(2-Cyclohexyl-4-oxo-1,3,8-triaza-spiro[4.5]dec-1-ene-8-sulfonyl)-vinyl]-3,5-dimethyl-phenyl}-acetamide]",110
